Consider two sequences from US20100112042A1, “Processes and Compositions for Liposomal and Efficient Delivery of Gene Silencing Therapeutics” (MDRNA, INC., priority 2008, published 2010).

The subject of one test is dsRNA. As to the kind of experiment: SYBR-GOLD Dye Binding Assay (peptide binding to RNAi-inducing agent). The note with it: FIG. 6; dsRNA 10 μg/ml, 10 mM hepes/5% dextrose pH 7.4. On the procedure:
The relative strength of the binding of a cationic peptide to an RNAi-inducing agent was measured with a dye binding assay.
The RNAi-inducing agent was prepared at 7.8 μl in 10 ml to make a 20 μg/ml stock, then 75 μl/well. A SYBR gold dilution was prepared at 3.75 μl in 15 ml for 1:4000 dilution for a 2.5× stock.
Peptides were dissolved in Hepes buffer with 5% dextrose and diluted. Peptides were further diluted so that 75 μl could be added to each well resulting in the desired N:P (ranging from 0-4). Peptides were assumed to have a purity of 50%, but actual peptide amount was unknown.
A SYBR-GOLD Dye Binding Assay was performed. A 96-well plate assay with sample volume of 150 μl per well. Final dsRNA concentration was 10 μg/ml in 10 mM hepes/5% dextrose at pH 7.4. Peptides were diluted into different working solutions such that equal volumes were added to reach different N/P ratios. For the addition procedure, dsRNA was first added (75 μl of 20 μg/ml), followed by […] of 2.5×SYBR Gold. Peptide ([…]) was then added to compete off the SYBR dye. Total volume was […]. Fluorescence was corrected from background of dye alone in buffer. SYBR-Gold ex/em was 495 nm/537 nm, read on Molecular Devices plate reader.

Another test relates to Cyclophilin B (PPIB). In words: In vitro assay for PPIB gene expression knockdown in A549 cells. The note with it: for Knockdown (%) (vs dsRNA control): A549 cells, dsRNA DC4377 100 nM; for Knockdown (%) vs control / Knockdown (%) vs untransf: dsRNA DX4221 100 nM. In kind it is cell-based, human. On the procedure:
Cyclophilin B (PPIB) gene knockdown measurements can be used as a primary activity-based in vitro assay for interfering RNA delivery formulations. Typically, the measurements were made as described below, with minor variations.
Cyclophilin B (PPIB) gene expression knockdown was measured in A549 human alveolar basal epithelial cells. For PPIB gene knockdown measurements, A549 cells were transfected with an interfering RNA formulation, total RNA prepared 24 hours after transfection, and PPIB mRNA assayed by RT-PCR. QRT-PCR of 36B4 (acidic ribosomal phosphoprotein PO) mRNA expression was performed for normalization.
A549 cells were seeded at 7,500 cells/well (96-well) and incubated overnight in medium. Confluency was about 50% at the time of transfection. Transfection complex was prepared by adding an interfering RNA to medium (OptiMEM™) and vortexing, separately adding a delivery formulation to medium (OptiMEM™) and vortexing, and finally mixing the interfering RNA in medium with the delivery formulation in medium and incubating 20 minutes at room temperature to make the transfection complex. The medium for incubated cells was replaced with fresh OptiMEM™ and transfection complex was added to each well. Cells were incubated for 5 hrs at 37° C. and 5% CO2, then complete medium was added (to a final fetal bovine serum concentration 10%) and incubation continued until 24 hours post-transfection.
For PPIB gene knockdown cells were lysed and RNA prepared (Invisorb RNA Cell HTS 96-Kit/C, Invitek, Berlin, or RNeasy 96 Kit, Qiagen). Quantitative RT-PCR was performed using One-Step qRT-PCR kit (Invitrogen) on a DNA Engine Opticon2 thermal cycler (BioRad).
Primers used for PPIB were: […]

The mark [1] stands for this setting: endosomolytic agent PN3033, binary N/P 5, final N/P 2.5.
[2] abbreviates: endosomolytic agent none, binary N/P 5.
The mark [3] stands for this setting: endosomolytic agent PN3033, binary N/P 4, final N/P 2.5.
[4] abbreviates: endosomolytic agent PN3033, binary N/P 4, final N/P 3.5.
[5] abbreviates: endosomolytic agent PN3033, binary N/P 5, final N/P 3.5.
Setting [6] is: endosomolytic agent PN3033, binary N/P 5, final N/P 4.5.

Where no end group is shown, it is not given here.

For the sequence “RRRRRCCRRRRR (cysteine pairing not given here; also: dimer) [PN3499, dimer peptide containing a total of 10 arginines]”, the “binding to dsRNA (ability to displace SYBR-Gold dye)” value with dsRNA is reported as “strongest binding”.
Take “WWHHKKRRCCRRKKHHWW [PN4110, triggered release peptide]”: the “Knockdown (%) (vs dsRNA control)” value came out at 65% in the test on Cyclophilin B (PPIB) (setting [1]); 63% in the test with Cyclophilin B (PPIB) (endosomolytic agent PN3033, binary N/P 10, final N/P 5); 0% in the test with Cyclophilin B (PPIB) (setting [2]). Further, the “Knockdown (%) vs control” value with Cyclophilin B (PPIB) (setting [3]) is 50%; in the test on Cyclophilin B (PPIB) (setting [4]), 41%; with Cyclophilin B (PPIB) (setting [1]) it was 72%; in the test on Cyclophilin B (PPIB) (setting [5]) it was 74%; in the test on Cyclophilin B (PPIB) (setting [6]), 36%; in the test on Cyclophilin B (PPIB) (setting [2]) it was 14%. Moreover, the “Knockdown (%) vs untransf” value is reported as 55% with Cyclophilin B (PPIB) (setting [3]); 36% with Cyclophilin B (PPIB) (setting [4]); 70% in the test with Cyclophilin B (PPIB) (setting [1]); 72% in the test with Cyclophilin B (PPIB) (setting [5]); 40% in the test with Cyclophilin B (PPIB) (setting [6]); 11% in the test with Cyclophilin B (PPIB) (setting [2]).
